{"source": "patent US20100151452A1", "about": "“Methods and Systems for Searching for Regulators of the Fer Protein and for Monitoring the Effects of the Fer Protein” (priority 2006, published 2010)", "test_system": "CDK2", "test": "Western blot of CDK2 level", "format": "cell-based, human", "conditions": "PC3 cells, simultaneous exposure to fer-siRNA and cycloheximide 10 μg/ml 4 h", "procedure": "For treatment with cycloheximide, PC3 cells transfected with siRNA for 72 h, were subjected to 10 μg/ml cycloheximide for additional 4 h, at the end of the transfection process.\nWhole cell lysates (WCL) were prepared as described before (Salem et al., 2005). For Western blot analysis, 20-30 μg proteins from each sample were resolved in 7-12% SDS-PAGE. Electroblotted proteins were detected using specific anti-Fer antibodies (Priel-Halachmi et al., 2000), anti-CDK2 (sc-6248, Santa Cruz), anti-CDK1 (sc-54, Santa Cruz), anti-CDK4 (610148, BD Biosciences), anti-CDK6 (554086, BD Biosciences), anti-CDK7 (sc-856, Santa Cruz), anti-cyclin A (sc-751, Santa Cruz), anti-cyclin D1 (sc-6281, Santa Cruz), anti-cyclin E (sc-247, Santa Cruz), anti-cyclin H (sc-1662, Santa Cruz), anti-pRB (sc-102, Santa Cruz), anti-phosphosthreonine^821-pRB (pThr821) (44-582, Biosource), anti-phosphoserine^795-pRB (pSer795) (sc-7986-R, Santa Cruz), anti-phosphoserine^780-pRB (pSer780) (9307, Cell Signaling), anti-phosphoserine^807/811-pRB (pSer807/811) (9308, Cell Signaling), anti-PP1α (2582, Cell Signaling), anti-PP1 (sc-443, Santa Cruz), anti-phosphothreonine^320-PP1α (pThr320) (2581, Cell Signaling), anti-p21Cip1 (sc-6246, Santa Cruz), anti-p27Kip1 (sc-528, Santa Cruz), anti-HA (NMS-101R, Covance), anti-Myc (13-2500, Zymed), and anti-Actin antibody (A 4700, Sigma). […]", "data": [{"smiles": "C[C@@H]1C[C@@H]([C@H](O)CC2CC(=O)NC(=O)C2)C(=O)[C@@H](C)C1", "note": "[cycloheximide]", "values": [{"measurement": "effect on the fer-siRNA induced decrease of the level of CDK2", "value": "alleviated this effect"}]}]}
